From a melting point compilation (Tetko et al.; mined from patent text by program, amines drawn as free bases though some values may be those of a salt)

Row | SMILES | melting point [°C]
1 | Cc1oc(-c2ccccc2)nc1COc1ccc(CCl)cc1 | 108 to 109
2 | CCCCNC(=O)Oc1ccc(C(O)(CC)c2cccc(C(F)(F)F)c2)cc1 (stereo not given) | 99 to 100
3 | CS(=O)(=O)c1ccc(/C(=C(\CCO)C(=O)O)c2ccc(Cl)cc2)cc1 | 144 to 145
4 | COc1cc(-c2nc3ccccc3n2Cc2ccccc2Cl)cc(OC)c1OC | 174
5 | Oc1cc2ccccc2nc1O | 261 to 262
6 | C=CCOc1cccc2oc(C(=O)OCC)cc(=O)c12 | 122 to 123
7 | Cc1c(C(F)(F)F)cnn(-c2cc(OCC3CO3)c(Cl)cc2F)c1=O (stereo not given) | 127
8 | CN=C(N)N(C)Cc1ccc(C2=NNC(=O)CC2C)cc1 (stereo not given) | 190 to 192
9 | CC(C)c1nn2ccccc2c1SC#N | 91 to 92.5
10 | CC(C)(C)OC(=O)C(Nc1ccccc1)c1ccc(Cl)c(Cl)c1 (racemic) | 94
11 | CCc1cccc(-c2cn(C)cc(-c3ccccc3)c2=O)c1 | 135 to 137
12 | CN(C)CCCNC(=O)c1ccccc1NS(=O)(=O)c1cccc(C(F)(F)F)c1 | 116 to 123
13 | CN1CCN(c2ccc3nc(N)c(C#N)c(NCc4ccccc4)c3c2)CC1 | 176
14 | O=C(CCNc1c(C(=O)O)[nH]c2cc(Cl)ccc12)c1ccccc1 | 250 to 255
15 | O=[N+]([O-])c1[nH]c(-c2c(Cl)cc(C(F)(F)F)cc2Cl)nc1Br | 292 to 293
16 | NC(=O)c1cccc(CSCCNC(=O)c2c(Cl)cccc2Cl)c1 | 148 to 150
17 | CCOC(=O)c1ccc(/C=C(\C)c2ccc(OC)c(C(C)(C)C)c2)cc1 | 71.5
18 | CNC(=O)C1CC(c2ccc(-c3ccc(N4C[C@H](Cn5ccnn5)OC4=O)cc3F)cn2)=NO1 (stereo not given in full) | 185 to 195
19 | Cc1cc(C)c(S(=O)(=O)On2nnc3ccccc32)c(C)c1 | 128 to 130
20 | OC1COc2ccccc2C1 (stereo not given) | 188 to 193
21 | CCCN1CCN(c2cc3ccccc3c(=O)[nH]2)CC1 | 208 to 209
22 | CCN(c1nc(C)cc(C(C)Cn2cnnn2)n1)c1ccc(C(C)C)cc1Br (stereo not given) | 127 to 129
23 | CC(=O)c1ccc(-c2ccc(F)cc2F)c(F)c1 | 92 to 94
24 | Fc1cc2c(cc1CN1CCOCC1)Cc1c(-c3ccsc3)n[nH]c1-2 | 222
25 | CCOc1c(C(=O)c2ccccc2)cnc2c1cnn2Cc1ccco1 | 70

Row | SMILES | melting point [°C]
26 | CCCCc1nc2c(N)nc3cc(C)ccc3c2o1 | 187 to 188
27 | CCCc1nc2c(N)nc3cc(O)ccc3c2s1 | 236 to 239
28 | Nc1c(Cl)cnc(OCC(=O)O)c1Cl | 200 to 201
29 | C/C(=C\c1ccc(C(=O)N2CCOCC2)cc1)c1ccc2c(c1)C(C)(C)CCC2(C)C | 143 to 144
30 | Cc1cc(C(C)N(O)C(N)=O)c(C)s1 (stereo not given) | 146 to 147
31 | COC(=O)C(C)(SC)c1ccc(N2CCCCC2)c(Cl)c1 (stereo not given) | 83.5 to 85
32 | COc1cc(Oc2cccc(C(F)(F)F)c2)nc(C(=O)NC(OC)C(F)(F)F)c1 (stereo not given) | 102 to 104
33 | CC(C)C1C(=O)N(CCl)S(=O)(=O)N1C (stereo not given) | 118 to 120
34 | Cc1ccc(S(=O)(=O)OC[C@H]2CCC[C@H](OCc3c(Cl)cccc3Cl)O2)cc1 (relative stereo) | 123 to 124
35 | COc1cc(COc2nn(-c3ccccc3)cc2/C=C/CO)ccc1OCc1nc(-c2ccco2)oc1C | 120 to 121
36 | O=C(O)[C@H](Cc1ccc(C(F)(F)F)o1)[C@@H](O)c1ccc(F)cc1 (racemic) | 86 to 87
37 | COc1cc2c(cc1OC)C(=O)CCCS2 | 128 to 129
38 | CC1C(N(C)C)CCN2c3ccccc3Cc3ccccc3C12 (stereo not given) | 174 to 176
39 | CCOC(=O)Cn1c(=O)c(C#N)c(N2CCN(C(=O)c3cccs3)CC2)c2cccnc21 | 236
40 | Cc1ccc(CCC(N)CC(=O)O)cc1 (stereo not given) | 206 to 207
41 | Cc1cn(-c2cc3c(cc2C(F)(F)F)[nH]c(=O)c2n[nH]c(=O)n23)c(C)n1 | > 330
42 | CCCc1cc(C(O)=S)cc(N)c1Cc1ccccc1 | 151 to 152
43 | CCCCC12CCC3c4ccc(OC)cc4CCC3C1CCC2O (stereo not given) | 123 to 125
44 | CCc1noc2c(Cl)c3c(cc12)CC(C(=O)O)O3 (stereo not given) | 213 to 215
45 | OC(C#CI)(c1ccc(-c2ccccc2)cc1)c1cccc(Cl)c1 (stereo not given) | 99 to 100
46 | O=C1C(c2ccccc2)=C(c2ccccc2)C(=O)N1CCc1ccccc1 | 164 to 165
47 | CC(C)N1C(=O)c2cccc3c(S(C)(=O)=O)ccc1c23 | 164 to 165
48 | O=C(O)CCNC(=O)[C@H](Cc1ccc(-c2ccccc2)cc1)NCP(=O)(Oc1ccccc1)Oc1ccccc1 | 102
49 | CC(C)=NOCc1nc2c(N)nc3ccccc3c2n1CCCNS(C)(=O)=O | 178 to 179
50 | CCN1CCN(C(=O)c2ccc(-c3cc(-c4n[nH]cc4-c4cccc(C)n4)ccn3)cc2)CC1 | 126

Row | SMILES | melting point [°C]
51 | O=C(O)c1cccc(NC(=O)[C@H](CO)NS(=O)(=O)c2ccc(Cl)cc2)c1 | 220 to 224
52 | CCN(C)c1nc2cc(Br)ccn2n1 | 109 to 111
53 | Nc1ccnc2c(NC(=O)c3c(Cl)cccc3Cl)cccc12 | 265 to 275
54 | Cc1cccc(-n2nc3c(c2OS(=O)(=O)C(F)(F)F)CCC3)n1 | 146 to 148
55 | CCCCCOC(=O)Nc1ccc(CN2C(=O)CCc3c(CC4SC(=O)NC4=O)ccc(OC)c32)cc1 (stereo not given) | 98 to 102
56 | COc1ccc(CN2CCC(N=C(NC#N)N3CCc4ccccc4C3)CC2)cc1 | 135 to 137
57 | COc1ccc(C=O)c(OC)c1Br | 80
58 | Fc1ccc(-c2nc(-c3ccc(CN4CCOCC4)cc3)[nH]c2-c2ccncc2)cc1 | 242 to 243
59 | NC(=O)C(N)c1ccc(F)cc1F (stereo not given) | 143
60 | CCN1CC(c2ccccc2)=C(O)C1=O | 192 to 195
61 | CN(C)/C=C/C(=O)c1ccc2n1Cc1ccccc1N(C(=O)c1ccc(C3CCCCC3)cc1)C2 | 237 to 240
62 | CCCCC(=O)C(Cc1ccc(C(=O)O)cc1)c1ccccc1 (stereo not given) | 140
63 | O=C1Nc2ccc(Cl)c(Cl)c2C(=O)N2CCC[C@@H]12 | 203 to 205
64 | CN(Cc1ccc(C2=NCCN2)cc1)C(=O)OCc1ccccc1 | 84
65 | O=c1cc(-c2ccncn2)nc2n1CCCCC2C1CC1 (racemic) | 139 to 140
66 | CC1CCC(Nc2ccccc2)c2nccc(=O)n21 (stereo not given) | 160 to 162
67 | CCOC(=NC(=O)OC)NC(=O)Nc1cc(C(=O)OC)c(Cl)cc1F | 105 to 107
68 | CN(C)S(=O)(=O)c1cccc(S(N)(=O)=O)c1 | 101 to 106
69 | COC(=O)C1CC(C#N)(c2ccc(OC)c(OC)c2)CCC1=O (stereo not given) | 102 to 108
70 | CN1C(=O)CC[C@]2(C)c3ccc(-c4ccc(Cl)c(C(F)(F)F)c4)cc3CC[C@@H]12 | 134 to 137
71 | CCOC(=O)C(C)(C)Oc1ccc(C#N)cc1C | 46
72 | NC1=Nc2ccc(-c3cccc(Cl)c3)cc2C12CCCCC2 | 118 to 120
73 | C=CCn1c(CC)nc2nc3cc(Cl)ccc3nc21 | 117 to 121
74 | O=Cc1ccc(OCCCCCCOc2ccc(C=O)cc2)cc1 | 110 to 111
75 | CC(=O)c1ccc2c(c1)Sc1cc(C(C)=O)ccc1O2 | 179
